One data set deals with MRSA. The experiment in a line: MIC by broth microdilution in CA-MHB (CLSI). The conditions noted are these: Staphylococcus aureus, 18 h, read-out: MIC on MRSA.
Data set [1] concerns Staphylococcus aureus MRSA strain (USA300 isolate). As to the kind of experiment: Hemolysis Assay II (exotoxin-mediated lysis of rabbit red blood cells by culture filtrate). Type of data set: cell-based. The note with it: Erythrocyte; for minimal effective concentration / IC95: 18 h; for minimal effective concentration: absorbance <2× the average of the complete inhibition control, read-out: Hemolysis assay II MEC (minimal effective concentration); for IC95: read-out: Hemolysis assay II IC95; for IC50: 18 h culture in CA-MHB, rabbit red blood cells.

The subject of a further data set is HepG2. The note with it: human, 48 h.

This is an account of results in patent US12509462B2, “3-(phenylsulfonyl)-[1,2,3]triazolo[1,5A]quinazolin-5(4H)-one derivatives” (BIOVERSYS AG, priority 2018, dated 2025).

Structures are written as SMILES. In brackets after ≈: the same amount, converted by molar mass.

As to `Cc1ccc(S(=O)(=O)c2nnn3c2[nH]c(=O)c2cc(Cl)ccc23)c(C)c1` [Compound 1, 7-chloro-3-(2,4-dimethylphenyl)sulfonyl-4H-triazolo[1,5-a]quinazolin-5-one], the MIC (in general, the least concentration at which growth counts as inhibited) in the data set on MRSA was at least 100 µM. Besides, in data set [1], the minimal effective concentration came out at 4 µg/mL; the IC95 (in general, the point of the concentration-response curve where the effect stands at 95%) was 2.95 µg/mL (≈ 7.59 µM); inhibition was half-maximal at 1.1 µg/mL (≈ 2.83 µM) (IC50). The “LD50 HepG2” value with HepG2 is recorded as “>=100 μM”.
For the compound `Cc1ccc(S(=O)(=O)c2nnn3c2[nH]c(=O)c2c(Cl)cccc23)c(C)c1` [Compound 2, 6-chloro-3-(2,4-dimethylphenyl)sulfonyl-4H-triazolo[1,5-a]quinazolin-5-one], the MIC in the data set on MRSA was at least 100 µM. In data set [1], the minimal effective concentration was 2 µg/mL; the IC95 was 2.5 µg/mL (≈ 6.43 µM); the IC50 (in general, the point on the concentration scale where inhibition reaches its midpoint) was 0.85 µg/mL (≈ 2.19 µM). Further, the “LD50 HepG2” value with HepG2 is recorded as “>=100 μM”.
For `Cc1ccc(S(=O)(=O)c2nnn3c2[nH]c(=O)c2cccc(Cl)c23)c(C)c1` [Compound 4, 9-chloro-3-(2,4-dimethylphenyl)sulfonyl-4H-triazolo[1,5-a]quinazolin-5-one], in that order: at least 100 µM, 8 µg/mL, 5.2 µg/mL (≈ 13.4 µM), 2.3 µg/mL (≈ 5.92 µM) and 50 µM.
On to `Cc1ccc(S(=O)(=O)c2nnn3c2[nH]c(=O)c2ccc(C#N)cc23)c(C)c1` [Compound 6, 3-(2,4-dimethylphenyl)sulfonyl-5-oxo-4H-triazolo[1,5-a]quinazoline-8-carbonitrile], for which the MIC with MRSA is at least 100 µM. Moreover, the “LD50 HepG2” value with HepG2 is recorded as “>=100 μM”.
As to `Cc1ccc(S(=O)(=O)c2nnn3c2[nH]c(=O)c2ccc(F)cc23)c(C)c1` [Compound 7, 3-(2,4-dimethylphenyl)sulfonyl-8-fluoro-4H-triazolo[1,5-a]quinazolin-5-one], in the data set on MRSA, the MIC was at least 100 µM. Also, in data set [1], the minimal effective concentration was determined as 4 µg/mL; the IC95 turned out to be 4.8 µg/mL (≈ 12.9 µM); the midpoint of inhibition, the IC50, lay at 1.7 µg/mL (≈ 4.57 µM). Also, the “LD50 HepG2” value in the data set on HepG2 is reported as “>=100 μM”.
In the same order, the values of `CC(C)c1ccc(S(=O)(=O)c2nnn3c2[nH]c(=O)c2c(Cl)cccc23)cc1` [Compound 8, 6-chloro-3-(4-isopropylphenyl)sulfonyl-4H-triazolo[1,5-a]quinazolin-5-one] are at least 100 µM, 4 µg/mL, 3.8 µg/mL (≈ 9.43 µM), 2.2 µg/mL (≈ 5.46 µM) and “>=100 μM”.
`CC(C)c1ccc(S(=O)(=O)c2nnn3c2[nH]c(=O)c2cccc(Cl)c23)cc1` [Compound 9, 9-chloro-3-(4-isopropylphenyl)sulfonyl-4H-triazolo[1,5-a]quinazolin-5-one]: in the data set with MRSA, the MIC turned out to be 25 µM (≈ 10.1 µg/mL). The “LD50 HepG2” value in the data set on HepG2 is 25 µM.
For the compound `COc1ccc2c(=O)[nH]c3c(S(=O)(=O)c4ccc(C)cc4OC)nnn3c2c1` [Compound 10, 8-methoxy-3-(2-methoxy-4-methyl-phenyl)sulfonyl-4H-triazolo[1,5-a]quinazolin-5-one], the MIC with MRSA is at least 100 µM. In addition, the “LD50 HepG2” value in the data set on HepG2 is reported as “>=100 μM”.
For `COc1ccc2c(=O)[nH]c3c(S(=O)(=O)c4ccc(OC(C)C)cc4C)nnn3c2c1` [Compound 11, 3-(4-isopropoxy-2-methyl-phenyl)sulfonyl-8-methoxy-4H-triazolo[1,5-a]quinazolin-5-one], in that order: at least 100 µM and “>=100 μM”.
On to `COc1ccc2c(=O)[nH]c3c(S(=O)(=O)c4ccc(Br)cc4C)nnn3c2c1` [Compound 13, 3-(4-bromo-2-methyl-phenyl)sulfonyl-8-methoxy-4H-triazolo[1,5-a]quinazolin-5-one], for which the MIC in the data set on MRSA was at least 100 µM. Moreover, the “LD50 HepG2” value in the data set with HepG2 is listed as “>=100 μM”.
For `COc1ccc2c(=O)[nH]c3c(S(=O)(=O)c4ccc(C)cc4F)nnn3c2c1` [Compound 14, 3-(2-fluoro-4-methyl-phenyl)sulfonyl-8-methoxy-4H-triazolo[1,5-a]quinazolin-5-one], in that order: at least 100 µM and “>=100 μM”.
In the same order, the values of `COc1ccc(S(=O)(=O)c2nnn3c2[nH]c(=O)c2ccc(OC)cc23)c(C)c1` [Compound 15, 8-methoxy-3-(4-methoxy-2-methyl-phenyl)sulfonyl-4H-triazolo[1,5-a]quinazolin-5-one] are at least 100 µM and “>=100 μM”.
In the same order, the values of `COc1ccc2c(=O)[nH]c3c(S(=O)(=O)c4ccc(NC(C)=O)cc4C)nnn3c2c1` [Compound 16, N-[4-[(8-methoxy-5-oxo-4H-triazolo[1,5-a]quinazolin-3-yl)sulfonyl]-3-methyl-phenyl]acetamide] are at least 100 µM and “>=100 μM”.
With `COc1ccc2c(=O)[nH]c3c(S(=O)(=O)c4ccc(F)cc4C)nnn3c2c1` [Compound 17, 3-(4-fluoro-2-methyl-phenyl)sulfonyl-8-methoxy-4H-triazolo[1,5-a]quinazolin-5-one], the MIC in the data set on MRSA was at least 100 µM. Also, in the data set on HepG2, the “LD50 HepG2” value was “>=100 μM”.
Regarding `COc1ccc2c(=O)[nH]c3c(S(=O)(=O)c4ccc(OC(F)(F)F)cc4C)nnn3c2c1` [Compound 19, 8-methoxy-3-[2-methyl-4-(trifluoromethoxy)phenyl]sulfonyl-4H-triazolo[1,5-a]quinazolin-5-one], in the data set on MRSA, the MIC is at least 100 µM. Besides, the “LD50 HepG2” value with HepG2 is reported as “>=100 μM”.
In the same order, the values of `COc1ccc2c(=O)[nH]c3c(S(=O)(=O)c4ccc(Cl)cc4C)nnn3c2c1` [Compound 20, 3-(4-chloro-2-methyl-phenyl)sulfonyl-8-methoxy-4H-triazolo[1,5-a]quinazolin-5-one] are at least 100 µM and “>=100 μM”.
As to `COc1ccc2c(=O)[nH]c3c(S(=O)(=O)c4ccc(C#N)cc4C)nnn3c2c1` [Compound 22, 4-[(8-methoxy-5-oxo-4H-triazolo[1,5-a]quinazolin-3-yl)sulfonyl]-3-methyl-benzonitrile], the minimum inhibitory concentration (MIC) in the data set on MRSA is at least 100 µM. The “LD50 HepG2” value in the data set with HepG2 is recorded as “>=100 μM”.
With `COc1ccc2c(=O)[nH]c3c(S(=O)(=O)c4ccc(C(=O)O)cc4C)nnn3c2c1` [Compound 23, 4-[(8-methoxy-5-oxo-4H-triazolo[1,5-a]quinazolin-3-yl)sulfonyl]-3-methyl-benzoic acid], in the data set on MRSA, the MIC is at least 100 µM. Besides, in the data set with HepG2, the “LD50 HepG2” value is given as “>=100 μM”.
In the same order, the values of `CCOC(=O)c1ccc(S(=O)(=O)c2nnn3c2[nH]c(=O)c2ccc(OC)cc23)c(C)c1` [Compound 24, ethyl 4-[(8-methoxy-5-oxo-4H-triazolo[1,5-a]quinazolin-3-yl)sulfonyl]-3-methyl-benzoate] are at least 100 µM and “>=100 μM”.
For `COc1ccc2c(=O)[nH]c3c(S(=O)(=O)c4ccc(C(F)(F)F)cc4)nnn3c2c1` [Compound 25, 8-methoxy-3-[4-(trifluoromethyl)phenyl]sulfonyl-4H-triazolo[1,5-a]quinazolin-5-one], in that order: at least 100 µM and “>=100 μM”.
In the same order, the values of `COc1ccc2c(=O)[nH]c3c(S(=O)(=O)c4ccc(C#N)cc4)nnn3c2c1` [Compound 29, 4-[(8-methoxy-5-oxo-4H-triazolo[1,5-a]quinazolin-3-yl)sulfonyl]benzonitrile] are at least 100 µM and “>=100 μM”.
`COc1ccc2c(c1)c(=O)[nH]c1c(S(=O)(=O)c3ccc(C)cc3C)nnn12` [Compound 30, 3-(2,4-dimethylphenyl)sulfonyl-7-methoxy-4H-triazolo[1,5-a]quinazolin-5-one]: the MIC with MRSA was at least 100 µM. In the data set on HepG2, the “LD50 HepG2” value is recorded as “>=100 μM”.
For `COc1ccc2c(=O)[nH]c3c(S(=O)(=O)c4ccc(-c5nn[nH]n5)cc4C)nnn3c2c1` [Compound 31, 8-methoxy-3-[2-methyl-4-(2H-tetrazol-5-yl)phenyl]sulfonyl-4H-triazolo[1,5-a]quinazolin-5-one], in that order: at least 100 µM and “>=100 μM”.
In the same order, the values of `COc1ccc2c(=O)[nH]c3c(S(=O)(=O)c4ccc(C(N)=O)cc4C)nnn3c2c1` [Compound 32, 4-[(8-methoxy-5-oxo-4H-triazolo[1,5-a]quinazolin-3-yl)sulfonyl]-3-methyl-benzamide] are at least 100 µM and “>=100 μM”.
In the same order, the values of `COc1ccc2c(=O)[nH]c3c(S(=O)(=O)c4ccc(-c5nnc(C)[nH]5)cc4C)nnn3c2c1` [Compound 33, 8-methoxy-3-[2-methyl-4-(5-methyl-4H-1,2,4-triazol-3-yl)phenyl]sulfonyl-4H-triazolo[1,5-a]quinazolin-5-one] are at least 100 µM and “>=100 μM”.
As for `Cc1ccc(S(=O)(=O)c2nnn3c2[nH]c(=O)c2ccc(OCC#N)cc23)c(C)c1` [Compound 54, 2-[[3-(2,4-dimethylphenyl)sulfonyl-5-oxo-4H-triazolo[1,5-a]quinazolin-8-yl]oxy]acetonitrile], the MIC with MRSA is at least 100 µM. In addition, in the data set on HepG2, the “LD50 HepG2” value is on record as “>=100 μM”.
For `Cc1ccc(S(=O)(=O)c2nnn3c2[nH]c(=O)c2ccc(OCCCC(N)=O)cc23)c(C)c1` [Compound 56, 4-[[3-(2,4-dimethylphenyl)sulfonyl-5-oxo-4H-triazolo[1,5-a]quinazolin-8-yl]oxy]butanamide], in that order: at least 100 µM and “>=100 μM”.
`COc1cc2c(=O)[nH]c3c(S(=O)(=O)c4ccc(C)cc4C)nnn3c2cc1O` [Compound 57, 3-(2,4-dimethylphenyl)sulfonyl-8-hydroxy-7-methoxy-4H-triazolo[1,5-a]quinazolin-5-one]: the MIC with MRSA was at least 100 µM. Also, the “LD50 HepG2” value in the data set on HepG2 is reported as “>=100 μM”.
For `Cc1ccc(S(=O)(=O)c2nnn3c2[nH]c(=O)c2cc(O)c(OCCO)cc23)c(C)c1` [Compound 61, 3-(2,4-dimethylphenyl)sulfonyl-7-hydroxy-8-(2-hydroxyethoxy)-4H-triazolo[1,5-a]quinazolin-5-one], in that order: at least 100 µM and “>=100 μM”.
